# Assay results from ChEMBL document CHEMBL1158638, “MMP-13 selective isonipecotamide alpha-sulfone hydroxamates” (Bioorg Med Chem Lett, 2010).
# How the values were obtained:
# [1] = target: 72 kDa type IV collagenase (Homo sapiens, UniProt P08253); experiment: Inhibition of MMP2
# Interstitial collagenase = target: T1, Interstitial collagenase (Homo sapiens, UniProt P03956); experiment: Inhibition of MMP1
# T1 sequence (P03956 whole entry): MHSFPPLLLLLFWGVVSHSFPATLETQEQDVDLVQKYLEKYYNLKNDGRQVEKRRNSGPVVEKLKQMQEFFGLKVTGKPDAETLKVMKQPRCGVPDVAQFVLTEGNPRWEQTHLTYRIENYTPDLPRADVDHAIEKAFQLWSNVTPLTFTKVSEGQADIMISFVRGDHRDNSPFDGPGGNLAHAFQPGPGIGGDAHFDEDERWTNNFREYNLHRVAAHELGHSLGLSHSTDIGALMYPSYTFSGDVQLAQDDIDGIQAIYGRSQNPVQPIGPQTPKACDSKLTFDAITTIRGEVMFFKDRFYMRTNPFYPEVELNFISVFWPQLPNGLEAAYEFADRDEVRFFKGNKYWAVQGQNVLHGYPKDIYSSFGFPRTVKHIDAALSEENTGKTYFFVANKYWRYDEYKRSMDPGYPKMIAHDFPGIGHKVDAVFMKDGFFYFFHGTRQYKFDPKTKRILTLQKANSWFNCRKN
# [2] = Selectivity ratio of IC50 for MMP2 to MMP13
# Stromelysin-1 = Stromelysin-1 (Homo sapiens, UniProt P08254); experiment: Inhibition of MMP3
# Neutrophil collagenase = Neutrophil collagenase (Homo sapiens, UniProt P22894); experiment: Inhibition of MMP8
# [3] = target: Matrix metalloproteinase-9 (Homo sapiens, UniProt P14780); experiment: Inhibition of MMP9
# [4] = target: Matrix metalloproteinase-14 (Homo sapiens, UniProt P50281); experiment: Inhibition of MMP14
# Collagenase 3 = Collagenase 3 (Homo sapiens, UniProt P45452)
# [5] = Half life in po dosed rat; format: ADME, organism-based; settings: in vivo
# [6] = Bioavailability in po dosed rat; format: ADME, organism-based; settings: in vivo
# Neutrophil collagenase, sequence (P22894 whole entry): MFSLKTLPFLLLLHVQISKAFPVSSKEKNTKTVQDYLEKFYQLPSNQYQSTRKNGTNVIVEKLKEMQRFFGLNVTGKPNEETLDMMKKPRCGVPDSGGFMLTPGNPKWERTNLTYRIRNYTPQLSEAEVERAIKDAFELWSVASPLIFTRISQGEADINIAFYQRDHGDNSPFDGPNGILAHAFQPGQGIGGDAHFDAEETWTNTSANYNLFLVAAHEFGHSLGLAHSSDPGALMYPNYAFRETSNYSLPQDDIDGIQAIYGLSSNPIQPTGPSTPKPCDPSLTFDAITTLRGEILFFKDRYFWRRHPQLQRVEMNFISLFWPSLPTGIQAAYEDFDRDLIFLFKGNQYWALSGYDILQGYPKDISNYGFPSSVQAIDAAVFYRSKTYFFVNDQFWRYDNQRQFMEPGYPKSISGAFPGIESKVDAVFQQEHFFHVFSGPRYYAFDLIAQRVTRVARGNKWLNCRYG
# 72 kDa type IV collagenase, sequence (P08253 whole entry): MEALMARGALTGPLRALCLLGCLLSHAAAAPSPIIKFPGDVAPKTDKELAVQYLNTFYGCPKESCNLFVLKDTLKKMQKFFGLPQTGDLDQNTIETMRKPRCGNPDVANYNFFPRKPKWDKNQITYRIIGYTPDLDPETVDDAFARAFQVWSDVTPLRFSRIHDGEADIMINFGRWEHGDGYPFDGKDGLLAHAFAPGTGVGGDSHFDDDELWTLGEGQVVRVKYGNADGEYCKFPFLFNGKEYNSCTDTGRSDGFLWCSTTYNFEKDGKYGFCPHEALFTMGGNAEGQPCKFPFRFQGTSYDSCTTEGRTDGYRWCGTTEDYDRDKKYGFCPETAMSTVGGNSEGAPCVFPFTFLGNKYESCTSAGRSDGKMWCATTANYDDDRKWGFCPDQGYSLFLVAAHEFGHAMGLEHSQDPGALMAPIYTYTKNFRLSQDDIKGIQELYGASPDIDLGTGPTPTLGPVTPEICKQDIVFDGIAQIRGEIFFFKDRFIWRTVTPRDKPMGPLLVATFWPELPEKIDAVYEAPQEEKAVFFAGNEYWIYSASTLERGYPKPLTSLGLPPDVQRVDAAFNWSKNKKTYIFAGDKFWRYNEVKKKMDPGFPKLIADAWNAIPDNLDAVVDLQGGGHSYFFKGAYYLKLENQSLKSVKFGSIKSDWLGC
# Stromelysin-1, sequence (P08254 whole entry): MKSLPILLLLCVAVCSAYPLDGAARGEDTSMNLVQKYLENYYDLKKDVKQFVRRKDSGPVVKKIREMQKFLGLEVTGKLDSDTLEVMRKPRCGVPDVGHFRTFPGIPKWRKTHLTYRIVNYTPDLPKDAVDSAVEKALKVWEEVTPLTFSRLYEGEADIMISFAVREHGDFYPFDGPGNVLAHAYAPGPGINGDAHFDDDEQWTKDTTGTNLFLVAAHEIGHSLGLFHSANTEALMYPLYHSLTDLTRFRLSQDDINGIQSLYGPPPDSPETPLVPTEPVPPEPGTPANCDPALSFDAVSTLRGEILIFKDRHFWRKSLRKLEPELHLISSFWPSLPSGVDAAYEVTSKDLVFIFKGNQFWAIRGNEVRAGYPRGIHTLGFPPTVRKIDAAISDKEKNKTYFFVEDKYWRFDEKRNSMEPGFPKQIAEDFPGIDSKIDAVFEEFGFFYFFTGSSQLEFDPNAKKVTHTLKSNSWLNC
# Matrix metalloproteinase-9, sequence (P14780 whole entry): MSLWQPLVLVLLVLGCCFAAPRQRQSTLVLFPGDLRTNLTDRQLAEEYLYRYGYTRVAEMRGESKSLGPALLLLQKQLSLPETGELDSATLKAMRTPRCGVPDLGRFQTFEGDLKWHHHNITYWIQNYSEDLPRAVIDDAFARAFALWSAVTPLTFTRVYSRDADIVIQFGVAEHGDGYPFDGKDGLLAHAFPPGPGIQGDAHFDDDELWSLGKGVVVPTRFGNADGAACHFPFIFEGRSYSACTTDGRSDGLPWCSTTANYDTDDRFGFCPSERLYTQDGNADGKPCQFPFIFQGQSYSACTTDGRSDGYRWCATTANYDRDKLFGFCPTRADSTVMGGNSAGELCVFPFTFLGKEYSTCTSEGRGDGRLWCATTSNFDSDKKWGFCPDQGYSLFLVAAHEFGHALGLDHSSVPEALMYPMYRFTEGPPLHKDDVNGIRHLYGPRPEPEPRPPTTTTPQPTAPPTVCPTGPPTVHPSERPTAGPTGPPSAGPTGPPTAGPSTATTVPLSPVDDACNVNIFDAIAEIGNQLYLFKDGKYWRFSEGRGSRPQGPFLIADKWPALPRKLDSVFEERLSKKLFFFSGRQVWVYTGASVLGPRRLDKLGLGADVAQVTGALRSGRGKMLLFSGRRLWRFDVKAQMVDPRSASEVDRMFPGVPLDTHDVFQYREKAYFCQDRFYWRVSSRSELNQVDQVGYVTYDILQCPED
Compound,IC50 [1] [nM],Ratio IC50 [2],IC50 (Collagenase 3) [nM],also measured
CC1CN(C(=O)C2CCN(c3ccc(S(=O)(=O)C4(C(=O)NO)CCOCC4)cc3)CC2)CC(C)N1 (centres undefined),7300,–,–,–
Cc1cccc(N2CCN(C(=O)C3CCN(c4ccc(S(=O)(=O)C5(C(=O)NO)CCOCC5)cc4)CC3)CC2)c1C,6000,1500,4,IC50 (Interstitial collagenase): > 10000 nM; IC50 (Stromelysin-1): 160 nM; IC50 (Neutrophil collagenase): > 10000 nM; IC50 [3]: > 10000 nM; IC50 [4]: > 10000 nM
CC(C)N1CCN(C(=O)C2CCN(c3ccc(S(=O)(=O)C4(C(=O)NO)CCOCC4)cc3)CC2)CC1,–,196,–,–
CN(Cc1ccccc1)C(=O)C1CCN(c2ccc(S(=O)(=O)C3(C(=O)NO)CCN(C4CC4)CC3)cc2)CC1,3500,175,20,–
CC(=O)N1CCN(C(=O)C2CCN(c3ccc(S(=O)(=O)C4(C(=O)NO)CCOCC4)cc3)CC2)CC1,–,50,–,–
O=C(C1CCN(c2ccc(S(=O)(=O)C3(C(=O)NO)CCOCC3)cc2)CC1)N1CCN(c2ccccc2F)CC1,–,209,–,–
O=C(C1CCN(c2ccc(S(=O)(=O)C3(C(=O)NO)CCOCC3)cc2)CC1)N1CCN(CCc2ccccc2)CC1,900,36,25.1,–
O=C(C1CCN(c2ccc(S(=O)(=O)C3(C(=O)NO)CCOCC3)cc2)CC1)N1CCN(c2ncccn2)CC1,–,250,–,–
COCCN1CCC(C(=O)NO)(S(=O)(=O)c2ccc(N3CCC(C(=O)N4CCN(c5cccc(C)c5C)CC4)CC3)cc2)CC1,400,–,70,IC50 (Interstitial collagenase): > 10000 nM
Cc1ccc(N2CCN(C(=O)C3CCN(c4ccc(S(=O)(=O)C5(C(=O)NO)CCOCC5)cc4)CC3)CC2)c(C)c1,–,459,–,–
O=C(C1CCN(c2ccc(S(=O)(=O)C3(C(=O)NO)CCOCC3)cc2)CC1)N1CCc2ccccc2C1,2100,233,9,–
COc1ccccc1N1CCN(C(=O)C2CCN(c3ccc(S(=O)(=O)C4(C(=O)NO)CCOCC4)cc3)CC2)CC1,–,250,–,–
O=C(C1CCN(c2ccc(S(=O)(=O)C3(C(=O)NO)CCOCC3)cc2)CC1)N1CCN(c2ccncc2)CC1,–,58,–,–
O=C(C1CCN(c2ccc(S(=O)(=O)C3(C(=O)NO)CCOCC3)cc2)CC1)N1CCN(c2ccccn2)CC1,–,336,–,–
O=C(C1CCN(c2ccc(S(=O)(=O)C3(C(=O)NO)CCOCC3)cc2)CC1)N1CCN(CCO)CC1,–,150,–,–
COCCN1CCC(C(=O)NO)(S(=O)(=O)c2ccc(N3CCC(C(=O)Nc4ccccc4)CC3)cc2)CC1,–,–,–,IC50 (Interstitial collagenase): 10000 nM; IC50 (Stromelysin-1): 370 nM; IC50 (Neutrophil collagenase): 10000 nM; IC50 [3]: 1230 nM; IC50 [4]: 10000 nM; half-life [5]: 49.8 min; bioavailability [6]: 4.2%
CN(C)CCN1CCN(C(=O)C2CCN(c3ccc(S(=O)(=O)C4(C(=O)NO)CCOCC4)cc3)CC2)CC1,> 10000,> 111,–,–
C=CCN(C)C(=O)C1CCN(c2ccc(S(=O)(=O)C3(C(=O)NO)CCOCC3)cc2)CC1,2900,83,35,–
COc1cc2c(cc1OC)CN(C(=O)C1CCN(c3ccc(S(=O)(=O)C4(C(=O)NO)CCOCC4)cc3)CC1)CC2,2400,–,–,–
COCCN1CCN(C(=O)C2CCN(c3ccc(S(=O)(=O)C4(C(=O)NO)CCOCC4)cc3)CC2)CC1,7000,156,45,–
C#CCN(C)C(=O)C1CCN(c2ccc(S(=O)(=O)C3(C(=O)NO)CCOCC3)cc2)CC1,2100,86,24.5,–
Cc1cccc(N2CCN(C(=O)C3CCN(c4ccc(S(=O)(=O)C5(C(=O)NO)CCN(C6CC6)CC5)cc4)CC3)CC2)c1C,6350,–,27.7,IC50 (Interstitial collagenase): > 10000 nM; IC50 (Stromelysin-1): 550 nM; IC50 (Neutrophil collagenase): 9400 nM; IC50 [3]: > 10000 nM; IC50 [4]: > 10000 nM
COCCN1CCC(C(=O)NO)(S(=O)(=O)c2ccc(N3CCC(C(=O)N4CC(C)NC(C)C4)CC3)cc2)CC1 (centres undefined),1700,34,50,–
O=C(C1CCN(c2ccc(S(=O)(=O)C3(C(=O)NO)CCOCC3)cc2)CC1)N1CCN(c2ccc(F)cc2)CC1,–,267,–,–
O=C(C1CCN(c2ccc(S(=O)(=O)C3(C(=O)NO)CCOCC3)cc2)CC1)N1CCN(c2cnccn2)CC1,–,34,–,–
CC(=O)c1ccc(N2CCN(C(=O)C3CCN(c4ccc(S(=O)(=O)C5(C(=O)NO)CCOCC5)cc4)CC3)CC2)cc1,–,104,–,–
C[C@@H]1COC[C@H](C)N1C(=O)C1CCN(c2ccc(S(=O)(=O)C3(C(=O)NO)CCOCC3)cc2)CC1,> 10000,–,18.1,–
